Where two headings read alike, the source gives them in different places. Non-standard residues stand in square brackets, D forms with d. Residues, ends and D or L forms follow the SMILES beside them. No end group written: not given here.
Experiments:
[1] = target: T1, hGHRH(1-44)-NH2 binding sites in rat anterior pituitary (Rattus norvegicus, UniProt Q02644); assay: Relative binding affinity in rat anterior pituitary preparations, [125I-Tyr10]hGHRH(1-44)-NH2 radioligand; conditions: values compared to hGHRH(1-29)-NH2
T1 construct: from tissue; host or cells: anterior pituitary of 2-month old male Sprague Dawley rats
T1 sequence (Q02644 23-423 isoform Q02644-2 limits assumed): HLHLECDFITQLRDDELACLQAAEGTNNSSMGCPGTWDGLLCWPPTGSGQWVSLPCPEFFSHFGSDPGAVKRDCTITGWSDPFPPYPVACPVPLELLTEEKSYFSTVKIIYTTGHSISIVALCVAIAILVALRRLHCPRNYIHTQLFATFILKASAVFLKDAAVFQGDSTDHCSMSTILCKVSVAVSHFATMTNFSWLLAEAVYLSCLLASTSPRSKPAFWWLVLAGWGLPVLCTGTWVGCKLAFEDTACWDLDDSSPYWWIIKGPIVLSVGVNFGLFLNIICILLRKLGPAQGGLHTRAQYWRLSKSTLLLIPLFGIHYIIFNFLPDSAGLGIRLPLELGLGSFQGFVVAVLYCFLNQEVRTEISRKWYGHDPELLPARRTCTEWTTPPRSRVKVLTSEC
From the text: Initial selection of a candidate from the original 14 polysubstituted GHRH analogs described in the U.S. Pat. No. 5,854,216 was based upon in vitro data on receptor affinity in 2-month old male Sprague Dawley rat anterior pituitary preparations. The embodiments are based on the affinity of selected GHRH analogs for the human GHRH receptor (hGHRH-R) in baby hamster kidney (BHK) cells transfected with hGHRH-R, and on resistance to proteolysis in rat serum, human plasma or human serum. More precisely, the preferred drug candidates were selected, as compared to hGHRH(1-29)-NH2, for: i-their increased relative binding affinity to hGHRH(1-44)-NH2 binding sites in rat anterior pituitary in vitro as well as to hGHRH-R in BHK-expressing cells in vitro; and ii-their relative resistance to proteolysis in vitro.

[2] = In vitro proteolysis assay in rat serum; format: in vitro ADME; conditions: for Relative resistance to proteolysis in vitro: compared to hGHRH(1-29)-NH2; for Residual concentration (% of initial concentration): incubation 0 min
Procedure: Proteolysis was stopped by adding 800 μl of ice-cold stop buffer (potassium-phosphate buffer, acidified to pH 0.8 with trifluoroacetic acid (TFA) and boiling 5 min (rat serum only). After centrifugation (12000 g, 5 min, 4° C.) (rat serum only), serum-peptide mixtures were passed through a conditioned Sep-Pak C-18 cartridge to extract native GHRH or a GHRH analog residual concentrations from serum proteins. The native GHRH or the analog was eluted in 2 ml of 50% acetonitrile-0.01% TFA/50% 0.01% aqueous TFA. 200 μl of extracted peptide, representing 1 μg of GHRH or analog at time 0, was quantified by analytical HPLC, using one μ-Bondapak C18 column (10 μm particle size, 0.39×15 cm) (rat serum) or two C18 columns in series (human serum and plasma) and a binary solvent system composed of NaClO4 0.01 M, pH 2.5 and acetonitrile. A linear gradient from 30 to 60% acetonitrile over 45 min (rat serum) or 30 to 50% (human serum and plasma) was used. Elution of intact peptide was monitored at 214 nm and residual concentration determined by assessment of peak surface areas.

human GHRH receptor = target: T2, human GHRH receptor (Homo sapiens, UniProt Q02643); assay: 125I-GHRH competitive binding assay in BHK cell membrane preparations; conditions: in comparison with hGHRH(1-29)NH2; ratio IC50 hGHRH(1-29)-NH2/IC50 analog
T2 construct: expressed in transfected cells; host or cells: BHK (baby hamster kidney) 570 cells, membrane preparations
T2 sequence (Q02643 23-423): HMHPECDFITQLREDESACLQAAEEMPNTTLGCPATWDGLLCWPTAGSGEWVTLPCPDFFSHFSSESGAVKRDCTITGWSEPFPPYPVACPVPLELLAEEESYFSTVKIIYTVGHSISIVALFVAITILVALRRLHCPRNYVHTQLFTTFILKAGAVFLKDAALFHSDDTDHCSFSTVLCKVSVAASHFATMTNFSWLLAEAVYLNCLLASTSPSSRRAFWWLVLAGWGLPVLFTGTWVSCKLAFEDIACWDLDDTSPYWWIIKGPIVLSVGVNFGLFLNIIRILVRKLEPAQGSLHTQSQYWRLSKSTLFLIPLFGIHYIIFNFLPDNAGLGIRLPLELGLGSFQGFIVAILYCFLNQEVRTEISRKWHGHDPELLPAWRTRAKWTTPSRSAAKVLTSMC
Procedure: Non specific binding was determined in presence of 1 μM hGHRH(1-29)NH2. Incubation was carried out at equilibrium (23° C., 60 min) and stopped by centrifugation (12,000 g, 5 min, at 4° C.). The radioactivity content in pellets was determined by gamma counting. The affinity of hGHRH(1-29) NH2 was tested in each experiment to assess the validity of the assay and determine the relative affinity of the analogs.
Values represent the mean±SEM of 3 experiments performed in triplicate for the analogs and the mean±SEM of 2 experiments performed in triplicate for hGHRH(1-44) NH2.
For the binding assay results presented in Tables 8 to 11, values represent the mean±SEM of 8 independent experiments performed in triplicate for the analogs and the mean±SEM of 4 experiments performed in triplicate for hGHRH(1-29)NH2. […] The relative affinity was obtained by taking the ratio IC50 of hGHRH (1-29)-NH2/IC50 analog.

[3] = target: human GHRH receptor (human) (UniProt Q02643); assay: competition with [125I-Tyr10]hGHRH(1-44)NH2, BHK cell membrane preparations expressing the human GHRH receptor
rat GHRH receptor (rat) = rat GHRH receptor (rat) (UniProt Q02644); assay: competition with [125I-Tyr10]hGHRH(1-44)-NH2, rat anterior pituitary membrane preparations
[4] = target: human GHRH receptor (human) (UniProt Q02643); assay: competition with [125I-Tyr10]hGHRH(1-44)NH2, BHK cell membrane preparations expressing the human GHRH receptor; remark: listed apart in the source

Molecule | Relative binding affinity in rat anterior pituitary [1] | Relative resistance to proteolysis in vitro [2] | Residual concentration (% of initial concentration) [2] | Relative binding affinity (R1) in hGHRH-R BHK-expressing cells (human GHRH receptor) | IC50 [3] [pM] | Relative binding affinity in rat anterior pituitary (relative to hGHRH(1-29)-NH2) (rat GHRH receptor (rat)) | IC50 [4] [pM] | Relative binding affinity (R1) in comparison with hGHRH(1-29)NH2 ([4]; scale: ratio IC50 of hGHRH)
CC[C@H](C)[C@H](NC(=O)[C@H](C)NC(=O)[C@H](CC(=O)O)NC(=O)[C@@H](C)NC(=O)[C@@H](N)Cc1ccc(O)cc1)C(=O)N[C@@H](Cc1ccccc1)C(=O)N[C@H](C(=O)N[C@@H](CC(N)=O)C(=O)N[C@@H](CO)C(=O)N[C@H](Cc1ccc(O)cc1)C(=O)N[C@@H](CCCNC(=N)N)C(=O)N[C@@H](CCCCN)C(=O)N[C@H](C(=O)N[C@@H](CC(C)C)C(=O)NCC(=O)N[C@@H](CCC(N)=O)C(=O)N[C@@H](CC(C)C)C(=O)N[C@@H](CO)C(=O)N[C@@H](C)C(=O)N[C@@H](CCCNC(=N)N)C(=O)N[C@@H](CCCCN)C(=O)N[C@@H](CCCCN)C(=O)N[C@@H](CC(C)C)C(=O)N[C@@H](CCC(N)=O)C(=O)N[C@@H](CC(=O)O)C(=O)N[C@H](C(=O)N[C@@H](CCSC)C(=O)N[C@@H](CO)C(=O)N[C@@H](CCCNC(=N)N)C(N)=O)[C@@H](C)CC)C(C)C)[C@@H](C)O [GHRH analog #3, [D-Ala^2, D-Tyr^10, Lys^22] hGHRH(1-29)-NH2] (H-Y[dA]DAIFTNS[dY]RKVLGQLSARKKLQDIMSR-NH2; N-terminus assumed) | 4.90 ± 2.70 | 2.25 | 100 ± 0 % of initial concentration | 239 ± 55 |  |  |  | 
CC[C@H](C)[C@H](NC(=O)[C@H](C)NC(=O)[C@H](CC(=O)O)NC(=O)[C@@H](C)NC(=O)[C@@H](N)Cc1ccc(O)cc1)C(=O)N[C@@H](Cc1ccccc1)C(=O)N[C@H](C(=O)N[C@@H](C)C(=O)N[C@@H](CO)C(=O)N[C@H](Cc1ccc(O)cc1)C(=O)N[C@@H](CCCNC(=N)N)C(=O)N[C@@H](CCCCN)C(=O)N[C@H](C(=O)N[C@@H](CC(C)C)C(=O)N[C@@H](C)C(=O)N[C@@H](CCC(N)=O)C(=O)N[C@@H](CC(C)C)C(=O)N[C@@H](CO)C(=O)N[C@@H](C)C(=O)N[C@@H](CCCNC(=N)N)C(=O)N[C@H](CCCCN)C(=O)N[C@@H](CCCCN)C(=O)N[C@@H](CC(C)C)C(=O)N[C@@H](CCC(N)=O)C(=O)N[C@@H](CC(=O)O)C(=O)N[C@H](C(=O)N[C@@H](CCSC)C(=O)N[C@@H](CO)C(=O)N[C@@H](CCCNC(=N)N)C(N)=O)[C@@H](C)CC)C(C)C)[C@@H](C)O [GHRH analog #4, [D-Ala^2, Ala^8, D-Tyr^10, Ala^15, D-Lys^21, Lys^22] hGHRH(1-29)-NH2] (H-Y[dA]DAIFTAS[dY]RKVLAQLSAR[dK]KLQDIMSR-NH2; N-terminus assumed) | 5.00 ± 0.91 | 6.06 | 100 ± 0 % of initial concentration | 0.05 ± 0.01 |  |  |  | 
YADAIFTAAYRKVLAQLSARKALQDIMSR-NH2 [GHRH analog #2, [Ala^8, Ala^9, Ala^15, Ala^22] hGHRH(1-29)-NH2] | 7.74 ± 3.49 | 1.81 | 100 ± 0 % of initial concentration | 3.70 ± 0.52 |  |  |  | 
[D-Ala2, D-Tyr10, D-Ala15, Lys22] hGHRH(1-29)-NH2 (peptide) |  |  |  |  | 1.2 | 1.04 | 6 | 939
